{"source": "patent US20250333701A1", "about": "“COMPOSITIONS AND METHODS FOR GENERATING HEMATOPOIETIC STEM CELLS (HSCS)” (Washington University, priority 2019, published 2025)", "format_in_all_cases": "cell-based, human", "key": {"[1]": {"test_system": "KDR+ CXCR4+ mesoderm", "assay": "Specification of definitive hemogenic endothelium (HE) and hematopoietic potential from isolated day 3 WNTd KDR+ CXCR4+ mesoderm", "conditions": "for hematopoietic potential of the CD34+ HE specified: retinol (5 μM) added on day 3 to isolated KDR+ CXCR4+ mesoderm", "experimental": "The hESC lines H1 and H9, and human iPSC1 were maintained on irradiated mouse embryonic fibroblasts in hESC media as described previously (Sturgeon, C. M., et al. Nat Biotechnol 32, 554-561, (2014); Thomson, J. A. et al. Science 282, 1145-1147 (1998); Dege, C. et al., J Vis Exp, (2017)). For differentiation, hPSC were cultured on Matrigel-coated plasticware (BD Biosciences, Bedford, MA) for 24 hours, followed by embryoid body (EB) generation, as described previously (Kennedy, M. et al. Cell Rep 2, 1722-1735, (2012); Dege, C. et al. J Vis Exp, (2017); Ditadi, A. et al. Methods 101, 65-72, (2016)). Briefly, hPSCs were dissociated with brief trypsin-EDTA (0.05%) treatment, followed by scraping. Embryoid body (EB) aggregates were resuspended in SFD media34 supplemented with L-glutamine (2 mM), ascorbic acid (1 mM), monothioglycerol (MTG, 4×10^−4 M; Sigma), transferrin (150 μg/mL), and BMP-4 (10 ng/mL). 24 hours later, bFGF (5 ng/mL) was added. On the second day of differentiation, ACTIVIN A, SB-431542 (6 μM), CHIR99021 (3 μM), and/or IWP2 (3 μM) were added. On the third day, EBs were changed to StemPro-34 media supplemented as above, with bFGF (5 ng/mL) and VEGF (15 ng/mL) and treated with either 10 μM of the pan-ALDH inhibitor DEAB (4-Diethylaminobenzaldehyde, Sigma #D86256; “RA-independent”) or 5 μM retinol (ROH, Sigma #R7632; “RA-dependent”). On day 6, IL-6 (10 ng/mL), IGF-1 (25 ng/mL), IL-11 (5 ng/mL), SCF (50 ng/mL), EPO (2 U/mL final) with DEAB or ROH were added. HE was FACS-isolated for terminal assays on day 8 (DEAB) or day 10 (ROH). All differentiation cultures were maintained at 37° C. All embryoid bodies and mesodermal aggregates were cultured in a 5% CO2/5% 02/90% N2 environment. All recombinant factors are human and were purchased from Biotechne. Analysis of hematopoietic colony potential via Methocult (Stem Cell Technologies) was performed as described previously (Ditadi, A. et al. Nat Cell Biol 17, 580-591, (2015); Kennedy, M. et al. Cell Rep 2, 1722-1735, (2012)).\nFor isolation of mesodermal populations, day 3 of differentiation WNTd KDR+ CD235a^negCXCR4+/neg and WNTi KDR+ CD235a+ cells were FACS-isolated and reaggregated at 250,000 cells/mL in day 3 media, as above. Cultures were plated in 250 μL volumes in a 24 well low-adherence culture plate, and grown overnight in a 37° C. incubator, with a 5% CO2/5% 02/90% N2 environment. As specified, RA was manipulated with either 5 μM ROH or ATRA (Sigma #R2625), or 10 μM DEAB. On day 4, an additional 1 mL of RA-supplemented day 3 media was added to reaggregates. On day 6 of differentiation, CD34+ and CD43+ cells from WNTi cultures were FACS-isolated for terminal assays. WNTd cultures were fed as normally, but without additional RA manipulation. CD34+ cells were sorted from all WNTd populations on day 8 of differentiation.\nCD34+CD43^neg hemogenic endothelium was isolated by FACS and allowed to undergo the endothelial-to-hematopoietic transition as described previously (Ditadi, A. et al., Nat Cell Biol 17, 580-591, (2015); Ditadi, A. et al., Methods 101, 65-72, (2016)). Briefly, cells (CD34+CD43^neg or CD34+CD43^negCD73^negCXCR4neg cells) were aggregated overnight at a density of 2×10^5 cells/mL in StemPro-34 media supplemented with L-glutamine (2 mM), ascorbic acid (1 mM), monothioglycerol (MTG, 4×10^−4 M; Sigma-Aldrich), holo-transferrin (150 μg/mL), TPO (30 ng/mL), IL-3 (30 ng/mL), SCF (100 ng/mL), IL-6 (10 ng/mL), IL-11 (5 ng/mL), IGF-1 (25 ng/mL), EPO (2 U/mL), VEGF (5 ng/mL), bFGF (5 ng/mL), BMP4 (10 ng/mL), FLT3L (10 ng/mL), and SHH (20 ng/mL). Aggregates were spotted onto Matrigel-coated plasticware and were cultured for additional 3 or 9 days for WNTi and WNTd cultures, respectively. Cultures were maintained in a 37° C. incubator, in a 5% CO2/5% 02/90% N2 environment. Hemato-endothelial cultures were subsequently harvested by trypsinization, and assessed for hematopoietic potential by Methocult in a 37° C. incubator, in a 5% CO2/air environment. […]"}, "[2]": {"test_system": "WNTd KDR+ CXCR4neg mesoderm", "assay": "Definitive hematopoietic development / HE specification from isolated day 3 WNTd KDR+ CXCR4neg mesoderm", "experimental": "The hESC lines H1 and H9, and human iPSC1 were maintained on irradiated mouse embryonic fibroblasts in hESC media as described previously (Sturgeon, C. M., et al. Nat Biotechnol 32, 554-561, (2014); Thomson, J. A. et al. Science 282, 1145-1147 (1998); Dege, C. et al., J Vis Exp, (2017)). For differentiation, hPSC were cultured on Matrigel-coated plasticware (BD Biosciences, Bedford, MA) for 24 hours, followed by embryoid body (EB) generation, as described previously (Kennedy, M. et al. Cell Rep 2, 1722-1735, (2012); Dege, C. et al. J Vis Exp, (2017); Ditadi, A. et al. Methods 101, 65-72, (2016)). Briefly, hPSCs were dissociated with brief trypsin-EDTA (0.05%) treatment, followed by scraping. Embryoid body (EB) aggregates were resuspended in SFD media34 supplemented with L-glutamine (2 mM), ascorbic acid (1 mM), monothioglycerol (MTG, 4×10^−4 M; Sigma), transferrin (150 μg/mL), and BMP-4 (10 ng/mL). 24 hours later, bFGF (5 ng/mL) was added. On the second day of differentiation, ACTIVIN A, SB-431542 (6 μM), CHIR99021 (3 μM), and/or IWP2 (3 μM) were added. On the third day, EBs were changed to StemPro-34 media supplemented as above, with bFGF (5 ng/mL) and VEGF (15 ng/mL) and treated with either 10 μM of the pan-ALDH inhibitor DEAB (4-Diethylaminobenzaldehyde, Sigma #D86256; “RA-independent”) or 5 μM retinol (ROH, Sigma #R7632; “RA-dependent”). On day 6, IL-6 (10 ng/mL), IGF-1 (25 ng/mL), IL-11 (5 ng/mL), SCF (50 ng/mL), EPO (2 U/mL final) with DEAB or ROH were added. HE was FACS-isolated for terminal assays on day 8 (DEAB) or day 10 (ROH). All differentiation cultures were maintained at 37° C. […]\n(§1) CD34+CD43^neg hemogenic endothelium was isolated by FACS and allowed to undergo the endothelial-to-hematopoietic transition as described previously (Ditadi, A. et al., Nat Cell Biol 17, 580-591, (2015); Ditadi, A. et al., Methods 101, 65-72, (2016)). […] Hemato-endothelial cultures were subsequently harvested by trypsinization, and assessed for hematopoietic potential by Methocult in a 37° C. incubator, in a 5% CO2/air environment. […]"}, "[3]": {"test_system": "WNTi CD235a+ mesoderm", "assay": "Extra-embryonic-like HE specification from isolated day 3 WNTi CD235a+ mesoderm", "experimental": "(§2) The hESC lines H1 and H9, and human iPSC1 were maintained on irradiated mouse embryonic fibroblasts in hESC media as described previously (Sturgeon, C. M., et al. Nat Biotechnol 32, 554-561, (2014); Thomson, J. A. et al. Science 282, 1145-1147 (1998); Dege, C. et al., J Vis Exp, (2017)). For differentiation, hPSC were cultured on Matrigel-coated plasticware (BD Biosciences, Bedford, MA) for 24 hours, followed by embryoid body (EB) generation, as described previously (Kennedy, M. et al. Cell Rep 2, 1722-1735, (2012); Dege, C. et al. J Vis Exp, (2017); Ditadi, A. et al. Methods 101, 65-72, (2016)). Briefly, hPSCs were dissociated with brief trypsin-EDTA (0.05%) treatment, followed by scraping. Embryoid body (EB) aggregates were resuspended in SFD media34 supplemented with L-glutamine (2 mM), ascorbic acid (1 mM), monothioglycerol (MTG, 4×10^−4 M; Sigma), transferrin (150 μg/mL), and BMP-4 (10 ng/mL). 24 hours later, bFGF (5 ng/mL) was added. […]\nas §1"}, "[4]": {"test_system": "HOXA genes", "assay": "HOXA gene expression in CXCR4+ mesoderm-derived CD34+ cells", "conditions": "after ROH treatment of CXCR4+ mesoderm on day 3", "experimental": "Total RNA was prepared for whole-transcriptome sequencing using the Clontech SMARTer kit and was sequenced using an Illumina HiSeq 2500 with 1×50 single reads. Reads were aligned to hg19 using STAR and gene counts were obtained using Subread. TMM normalization and RPKM counts were calculated using EdgeR. Gene Set Enrichment Analysis (GSEA, version 4.0.1) and the Database for Annotation, Visualization, and Integrated discovery (DAVID, version 6.8) were used for differential expression analysis. Morpheus (software.broadinstitute.org/morpheus) was used to create heatmaps and perform hierarchical clustering (one minus the Pearson correlation with average linkage). Bulk RNA-seq comparison to scRNA-seq was performed using the SingleR package (version 1.0.1)(Aran, D. et al., Nat Immunol 20, 163-172, (2019)) implemented in R (version 3.5.1). qRT-PCR was performed as previously described (Sturgeon, C. M., et al., Nat Biotechnol 32, 554-561, (2014)). Briefly, total RNA was isolated with the RNAqueous RNA Isolation Kit (Ambion), followed by reverse transcription using random hexamers and Oligo (dT) with Superscript III Reverse Transcriptase (Invitrogen). Real-time quantitative PCR was performed on a StepOnePlus thermocycle (Applied Biosystems), using Power Green SYBR mix (Invitrogen). […] Gene expression was evaluated as DeltaCt relative to control (ACTB). […]"}, "[5]": {"test_system": "WNTd differentiation cultures", "assay": "Hematopoietic potential of HE from bulk WNTd differentiation cultures treated on day 3 (erythro-myeloid CFC, BFU-E globin)", "conditions": "ROH on day 3 (RAd HE) compared with DEAB (RAi HE)", "experimental": "as §2, with “scraping.” for “scraping. Embryoid body (EB) aggregates were resuspended in SFD media34 supplemented with L-glutamine (2 mM), ascorbic acid (1 mM), monothioglycerol (MTG, 4×10^−4 M; Sigma), transferrin (150 μg/mL), and BMP-4 (10 ng/mL). 24 hours later, bFGF (5 ng/mL) was added.”\nas §1, with “environment. The experiments were performed in triplicate and the mean (±standard deviation) of the […] calculated for each data set is reported.” for “environment.”"}}, "note": "Entries after “also recorded” stand apart in the source; their conditions may differ."}
{"smiles": "CC1=C(/C=C/C(C)=C/C=C/C(C)=C/C(=O)O)C(C)(C)CCC1", "note": "[ATRA, all-trans-retinoic acid]", "values": [{"measurement": "specification of definitive HE", "setting": "[1]; 1 nM ATRA on isolated KDR+ CXCR4+ mesoderm, day 3 of differentiation", "result": "robust specification of definitive HE"}, {"measurement": "specification of HE", "setting": "[1]; ATRA concentrations lower than 1 nM and higher than 10 nM, isolated KDR+ CXCR4+ mesoderm", "result": "failed to specify HE"}, {"measurement": "effect on definitive hematopoietic development", "setting": "[2]; 1-10 nM ATRA, WNTd KDR+ CXCR4neg mesoderm", "result": "no significant effect"}, {"measurement": "ATRA concentration repressive to HE specification", "setting": "[2]; WNTd KDR+ CXCR4neg mesoderm", "result": "> 100", "unit": "nM"}, {"measurement": "ATRA concentration repressive to extra-embryonic-like HE specification", "setting": "[3]", "result": "> 1", "unit": "nM"}]}
{"smiles": "CCN(CC)c1ccc(C=O)cc1", "note": "[DEAB, 4-Diethylaminobenzaldehyde]", "values": [{"measurement": "hematopoietic potential of the CD34+ population obtained", "setting": "[1]; DEAB (ALDH inhibitor) added to KDR+ CXCR4+ mesoderm culture", "result": "completely lacked any hematopoietic potential"}, {"measurement": "impact on definitive hematopoietic specification", "setting": "[2]; DEAB added to KDR+ CXCR4neg mesoderm differentiation, any stage", "result": "gives rise to definitive hematopoietic progenitors; also recorded: no negative impact"}]}
{"smiles": "CC1=C(/C=C/C(C)=C/C=C/C(C)=C/CO)C(C)(C)CCC1", "note": "[ROH, retinol]", "values": [{"measurement": "stage at which ROH treatment results in specification of HE", "setting": "[1]; ROH treatment on day 3, 4 or 5 of CXCR4+ mesoderm", "result": "on day 3 of differentiation, but not thereafter, resulted in the specification of HE"}, {"measurement": "hematopoietic potential of the CD34+ HE specified", "setting": "[1]", "result": "harbored definitive erythroid, myeloid, and lymphoid hematopoietic potential"}, {"measurement": "hematopoietic potential of the CD34+ HE specified", "setting": "[1]; listed as retinol", "result": "capable of erythro-myeloid-lymphoid multilineage hematopoiesis"}, {"measurement": "HOXA gene expression", "setting": "[4]", "result": "elevated HOXA gene expression"}, {"measurement": "erythro-myeloid CFC potential of the resulting HE", "setting": "[5]", "result": "significantly more erythro-myeloid CFC potential than RAi HE"}, {"measurement": "fetal (HBG) globin expression of resultant BFU-E", "setting": "[5]", "result": "higher expression of fetal (HBG) globin"}]}
